Measured values: US11839613B2, “Pyrimidine derivatives as PGE2 receptor modulators” (IDORSIA PHARMACEUTICALS LTD, priority 2017, dated 2023)

How the values were obtained:
PTGER2 (EP2) = PTGER2 (EP2) (Homo sapiens (Human), UniProt P43116); experiment: hEP2 b-arrestin assay (PathHunter HEK 293 PTGER2 b-arrestin cells); format: cell-based; settings: antagonistic activity, beta-arrestin assay; read-out: hEP2 b-arr IC50
Procedure: Plate is pre-incubated 15 minutes at 37° C. Then five microliters of PGE2 (final conc. 5 μM) are transferred into the assay plate. Plate is incubated 120 minutes at 37° C.
(each concentration is measured in duplicate)

PTGER4 (EP4) = PTGER4 (EP4) (Homo sapiens (Human), UniProt P35408); experiment: cell-based
Chain of PTGER4 (EP4) (P35408 whole entry): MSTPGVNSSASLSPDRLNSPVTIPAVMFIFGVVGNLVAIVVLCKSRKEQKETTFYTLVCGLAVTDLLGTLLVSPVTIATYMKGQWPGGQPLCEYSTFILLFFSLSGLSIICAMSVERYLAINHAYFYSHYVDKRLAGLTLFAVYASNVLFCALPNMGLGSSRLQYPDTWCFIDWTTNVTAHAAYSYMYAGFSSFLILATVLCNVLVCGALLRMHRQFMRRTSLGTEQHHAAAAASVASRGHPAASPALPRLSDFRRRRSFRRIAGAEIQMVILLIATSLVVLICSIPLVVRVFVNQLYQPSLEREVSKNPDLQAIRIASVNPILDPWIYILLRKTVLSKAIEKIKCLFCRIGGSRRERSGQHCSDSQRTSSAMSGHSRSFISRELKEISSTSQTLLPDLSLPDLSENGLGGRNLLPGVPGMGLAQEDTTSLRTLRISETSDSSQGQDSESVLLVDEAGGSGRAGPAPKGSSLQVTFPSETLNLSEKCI

Chain of PTGER2 (EP2) (P43116 whole entry): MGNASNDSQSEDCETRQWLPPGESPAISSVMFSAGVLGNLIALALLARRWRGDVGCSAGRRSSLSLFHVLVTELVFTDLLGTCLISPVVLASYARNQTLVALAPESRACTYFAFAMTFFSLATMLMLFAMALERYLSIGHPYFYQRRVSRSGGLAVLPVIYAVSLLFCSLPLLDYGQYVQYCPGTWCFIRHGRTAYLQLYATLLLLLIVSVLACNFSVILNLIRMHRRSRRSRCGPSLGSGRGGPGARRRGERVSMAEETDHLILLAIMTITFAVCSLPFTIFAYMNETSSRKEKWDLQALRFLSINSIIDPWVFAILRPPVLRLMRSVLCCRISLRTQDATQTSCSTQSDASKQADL

IC50 (PTGER2 (EP2))	IC50 (PTGER4 (EP4))	Compound
0.424 µM	0.08 µM	CC(C)Oc1cc(-c2cc(NCCc3ccc4sccc4c3F)ncn2)ccc1CC(=O)O [Example 424, (4-{6-[2-(4-Fluoro-benzo[b]thiophen-5-yl)-ethylamino]-pyrimidin-4-yl}-2-isopropoxy-phenyl)-acetic acid]
0.065 µM	0.152 µM	CCOc1cc2c(cc1CCNc1cc(-c3ccc(CC(=O)O)c(OC(C)C)c3)ncn1)OCCO2 [Example 425, (4-{6-[2-(7-Ethoxy-2,3-dihydro-benzo[1,4]dioxin-6-yl)-ethylamino]-pyrimidin-4-yl}-2-isopropoxy-phenyl)-acetic acid]
0.009 µM	0.046 µM	COc1cc2c(c(C)c1CCNc1cc(-c3ccc(CC(=O)O)c(OC(C)C)c3)ncn1)OCCO2 [Example 426, (2-Isopropoxy-4-{6-[2-(7-methoxy-5-methyl-2,3-dihydro-benzo[1,4]dioxin-6-yl)-ethylamino]-pyrimidin-4-yl}-phenyl)-acetic acid]
0.017 µM	0.09 µM	CCOc1cc2c(cc1CCNc1cc(-c3ccc(CC(=O)O)c(OC(F)(F)F)c3)ncn1)OCCO2 [Example 427, (4-{6-[2-(7-Ethoxy-2,3-dihydro-benzo[1,4]dioxin-6-yl)-ethylamino]-pyrimidin-4-yl}-2-trifluoromethoxy-phenyl)-acetic acid]
0.007 µM	0.041 µM	COc1cc2c(c(C)c1CCNc1cc(-c3ccc(CC(=O)O)c(OC(F)(F)F)c3)ncn1)OCCO2 [Example 428, (4-{6-[2-(7-Methoxy-5-methyl-2,3-dihydro-benzo[1,4]dioxin-6-yl)-ethylamino]-pyrimidin-4-yl}-2-trifluoromethoxy-phenyl)-acetic acid]
0.052 µM	0.06 µM	CSc1cc(-c2cc(NCCc3ccc4scc(Cl)c4c3)ncn2)ccc1C(=O)O [Example 429, 4-{6-[2-(3-Chloro-benzo[b]thiophen-5-yl)-ethylamino]-pyrimidin-4-yl}-2-methylsulfanyl-benzoic acid]
0.179 µM	0.052 µM	CCOc1cc(-c2cc(NCCc3ccc4scc(Cl)c4c3)ncn2)ccc1CC(=O)O [Example 431, (4-{6-[2-(3-Chloro-benzo[b]thiophen-5-yl)-ethylamino]-pyrimidin-4-yl}-2-ethoxy-phenyl)-acetic acid]
0.02 µM	0.087 µM	COc1cc2c(c(C)c1CCNc1cc(-c3ccc(C(=O)O)c(OC(C)C)c3)ncn1)OCCO2 [Example 432, 2-Isopropoxy-4-{6-[2-(7-methoxy-5-methyl-2,3-dihydro-benzo[1,4]dioxin-6-yl)-ethylamino]-pyrimidin-4-yl}-benzoic acid]
0.03 µM	0.019 µM	CCOc1cc(-c2cc(NCCc3cc4c(cc3OC(F)F)OCCO4)ncn2)sc1C(=O)O [Example 433, 5-{6-[2-(7-Difluoromethoxy-2,3-dihydro-benzo[1,4]dioxin-6-yl)-ethylamino}-pyrimidin-4-yl}-3-ethoxy-thiophene-2-carboxylic acid]
0.026 µM	0.058 µM	COc1cc(-c2cc(NCCc3c(OC)cc4c(c3C)OCCO4)ncn2)ccc1CC(=O)O [Example 434, (2-Methoxy-4-{6-[2-(7-methoxy-5-methyl-2,3-dihydro-benzo[1,4]dioxin-6-yl)-ethylamino]-pyrimidin-4-yl}-phenyl)-acetic acid]
0.104 µM	0.041 µM	COc1cc(-c2cc(NCCc3ccc4sccc4c3F)ncn2)ccc1OCCC(=O)O [Example 437, 3-(4-{6-[2-(4-Fluoro-benzo[b]thiophen-5-yl)-ethylamino]-pyrimidin-4-yl}-2-methoxy-phenoxy)-propionic acid]
0.519 µM	0.049 µM	COc1cc(-c2cc(NCCc3cc(F)c4sccc4c3)ncn2)ccc1OCCC(=O)O [Example 438, 3-(4-{6-[2-(7-Fluoro-benzo[b]thiophen-5-yl)-ethylamino]-pyrimidin-4-yl}-2-methoxy-phenoxy)-propionic acid]
0.01 µM	0.053 µM	COc1cc2c(c(C)c1CCNc1cc(-c3ccc(CC(=O)O)c(OC(F)F)c3)ncn1)OCCO2 [Example 441, (2-Difluoromethoxy-4-{6-[2-(7-methoxy-5-methyl-2,3-dihydro-benzo[1,4]dioxin-6-yl)-ethylamino]-pyrimidin-4-yl}-phenyl)-acetic acid]
0.082 µM	0.027 µM	COc1cc2c(c(F)c1CCNc1cc(-c3ccc(CC(=O)O)c(OC(F)F)c3)ncn1)OCCO2 [Example 442, (2-Difluoromethoxy-4-{6-[2-(5-fluoro-7-methoxy-2,3-dihydro-benzo[1,4]dioxin-6-yl)-ethylamino]-pyrimidin-4-yl}-phenyl)-acetic acid]
0.107 µM	0.029 µM	COc1cc2ccccc2c(C)c1CCNc1cc(-c2ccc(CC(=O)O)c(OC(F)F)c2)ncn1 [Example 443, (2-Difluoromethoxy-4-{6-[2-(3-methoxy-1-methyl-naphthalen-2-yl)-ethylamino]-pyrimidin-4-yl}-phenyl)-acetic acid]
0.015 µM	0.043 µM	CCc1cc(-c2cc(NCCc3c(OC)cc4c(c3C)OCCO4)ncn2)ccc1CC(=O)O [Example 444, (2-Ethyl-4-{6-[2-(7-methoxy-5-methyl-2,3-dihydro-benzo[1,4]dioxin-6-yl)-ethylamino]-pyrimidin-4-yl}-phenyl)-acetic acid]
0.088 µM	0.038 µM	CCc1cc(-c2cc(NCCc3c(OC)cc4ccccc4c3C)ncn2)ccc1CC(=O)O [Example 445, (2-Ethyl-4-{6-[2-(3-methoxy-1-methyl-naphthalen-2-yl)-ethylamino]-pyrimidin-4-yl}-phenyl)-acetic acid]
0.032 µM	0.108 µM	CCc1cc(-c2cc(NCCc3c(OC)cc4ccccc4c3C)ncn2)ccc1C(=O)O [Example 446, 2-Ethyl-4-{6-[2-(3-methoxy-1-methyl-naphthalen-2-yl)-ethylamino]-pyrimidin-4-yl}-benzoic acid]
0.002 µM	0.13 µM	CCOc1cc2c(cc1CCNc1cc(-c3ccc(C(=O)O)c(OC4CC4)c3)ncn1)OCCO2 [Example 447, 2-Cyclopropoxy-4-{6-[2-(7-ethoxy-2,3-dihydro-benzo[1,4]dioxin-6-yl)-ethylamino]-pyrimidin-4-yl}-benzoic acid]
0.015 µM	0.046 µM	COc1cc2ccccc2c(C)c1CCNc1cc(-c2ccc(C(=O)O)c(OC3CC3)c2)ncn1 [Example 448, 2-Cyclopropoxy-4-{6-[2-(3-methoxy-1-methyl-naphthalen-2-yl)-ethylamino]-pyrimidin-4-yl}-benzoic acid]
0.083 µM	0.046 µM	O=C(O)c1ccc(-c2cc(NCCc3cc(F)c4sccc4c3)ncn2)cc1OC1CC1 [Example 449, 2-Cyclopropoxy-4-{6-[2-(7-fluoro-benzo[b]thiophen-5-yl)-ethylamino]-pyrimidin-4-yl}-benzoic acid]
0.066 µM	0.097 µM	COc1cc2c(cc1CCNc1cc(-c3ccc(CC(=O)O)c(OC(F)(F)F)c3)ncn1)OCCO2 [Example 450, (4-{6-[2-(7-Methoxy-2,3-dihydro-benzo[1,4]dioxin-6-yl)-ethylamino]-pyrimidin-4-yl}-2-trifluoromethoxy-phenyl)-acetic acid]
0.2 µM	0.176 µM	CCCc1cc(-c2cc(NCCc3cc(F)c4sccc4c3)ncn2)ccc1C(N)=O [Example 457, 4-{6-[2-(7-Fluoro-benzo[b]thiophen-5-yl)-ethylamino]-pyrimidin-4-yl}-2-propyl-benzamide]
0.55 µM	0.104 µM	CCCc1cc(-c2cc(NCCc3cc(F)c4sccc4c3)ncn2)ccc1C(=O)NC [Example 458, 4-{6-[2-(7-Fluoro-benzo[b]thiophen-5-yl)-ethylamino]-pyrimidin-4-yl}-N-methyl-2-propyl-benzamide]
0.683 µM	0.236 µM	CCCc1cc(-c2cc(NCCc3cc(F)c4sccc4c3)ncn2)ccc1C(=O)NCC(C)(C)O [Example 459, 4-{6-[2-(7-Fluoro-benzo[b]thiophen-5-yl)-ethylamino]-pyrimidin-4-yl}-N-(2-hydroxy-2-methyl-propyl)-2-propyl-benzamide]
0.207 µM	0.161 µM	CCCc1cc(-c2cc(NCCc3cc(F)c4sccc4c3)ncn2)ccc1C(=O)NCCO [Example 460, 4-{6-[2-(7-Fluoro-benzo[b]thiophen-5-yl)-ethylamino]-pyrimidin-4-yl}-N-(2-hydroxy-ethyl)-2-propyl-benzamide]
0.231 µM	0.121 µM	CCOc1cc(-c2cc(NCCc3cc(F)c4sccc4c3)ncn2)ccc1C(N)=O [Example 461, 2-Ethoxy-4-{6-[2-(7-fluoro-benzo[b]thiophen-5-yl)-ethylamino]-pyrimidin-4-yl}benzamide]
0.325 µM	0.197 µM	CCOc1cc(-c2cc(NCCc3cc(F)c4sccc4c3)ncn2)ccc1C(=O)NC [Example 462, 2-Ethoxy-4-{6-[2-(7-fluoro-benzo[b]thiophen-5-yl)-ethylamino]-pyrimidin-4-yl}-N-methyl-benzamide]
0.3 µM	0.087 µM	CCOc1cc(-c2cc(NCCc3cc(F)c4sccc4c3)ncn2)ccc1C(=O)NCCO [Example 464, 2-Ethoxy-4-{6-[2-(7-fluoro-benzo[b]thiophen-5-yl)-ethylamino]-pyrimidin-4-yl}-N-(2-hydroxy-ethyl)-benzamide]

Compound	IC50 (PTGER2 (EP2))	IC50 (PTGER4 (EP4))
O=C(O)c1ccc(-c2cc(NCCc3ccc4scc(Cl)c4c3)ncn2)cc1OC1CCC1 [Example 430, 4-{6-[2-(3-Chloro-benzo[b]thiophen-5-yl)-ethylamino]-pyrimidin-4-yl}-2-cyclobutoxy-benzoic acid]	0.069 µM	0.066 µM
CCOc1cc(-c2cc(NCCc3c(OC)cc4c(c3F)OCCO4)ncn2)ccc1C(=O)O [Example 435, 2-Ethoxy-4-{6-[2-(5-fluoro-7-methoxy-2,3-dihydro-benzo[1,4]dioxin-6-yl)-ethylamino]-pyrimidin-4-yl}-benzoic acid]	0.046 µM	0.11 µM
